Test results taken from patent US20060100168A1, “Method of treating cancer using adenosine and its analogs” (The Trustee of Boston University, priority 2002, published 2006).
Entries after “also recorded” stand apart in the source; their conditions may differ.

Experiments:
[1] = test system: estrogen receptor α (ERα) mRNA; experiment: Semi-quantitative RT-PCR of ERα mRNA in MCF-7 cells; assay type: cell-based, human; settings: 100 μM
Procedure: Total RNA preparation and Reverse Transcription Polymerase Chain Reaction (RT-PCR): Total RNA from MCF-7 cells was prepared with Trizol (Invitrogen, Carlsbad, Calif.) as described before (41). For reverse transcription, 2 μg of RNA were used in a […] with random primers and M-MLV reverse transcriptase (Invitrogen, Carlsbad, Calif.), following the manufacturer's protocol. To control for possible contamination from genomic DNA in subsequent PCR reactions, control reverse transcription reactions were carried out under identical conditions, only without reverse transcriptase. After reverse transcription, 5% of the product was used in each PCR reaction. For the experiments analyzing A3 adenosine receptor (A3AR) expression, 27 cycles were used in the PCR reactions. Specific primers were designed for human A3AR, which match to two separate exons, according to genomic sequences (from GenBank). Sequences for the sense and antisense A3AR primers are: 5′tccatcatgtccttgctg3′ (SEQ ID NO: 1) and 5′gcacatgacaaccaggg3′ (SEQ ID NO.: 2). In the experiments analyzing estrogen receptor a (ERα) mRNA, semi-quantitative PCR reactions were carried out with 23 cycles for ERα primers and 19 cycles for GAPDH primers (used as a control). The cycle numbers were tested in previous experiments not to produce saturation effects. […]

[2] = test system: primary rat bone marrow cells; experiment: Thymidine incorporation assay; assay type: cell-based; settings: 24 hours, IB-MECA at 100 μM
Procedure: Thymidine Incorporation Assay. Thymidine incorporation assays were performed as described (Zhang, Y., Wang, Z., and Ravid, K. The cell cycle in polyploid megakaryocytes is associated with reduced activity of cyclin B1-dependent cdc2 kinase. J Biol Chem, 271: 4266-4272, 1996) with modifications. Rat bone marrow cells were cultured in 25 cm^2 flasks at a concentration of 20×10^6 cells per 2 ml. After drug treatment for 24 hours, cells were incubated with ^3H-thymidine at a final concentration of 3 μCi/ml for 8 hours. For MCF-7 cells, cells were cultured in 6-well plates and incubated with ^3H-thymidine for 2 hours after drug treatment. Cells were divided into two portions, sixty percent of which were processed as described (Id.) to obtain tritium counts. The rest of the cells were lysed with Western blotting lysis buffer and protein concentrations were determined by Bio-Rad protein assay reagent (Bio-Rad, Hercules, Calif.). Tritium counts were normalized with corresponding protein concentrations to account for cell number variations.

[3] = test system: cyclin levels in HeLa cells; experiment: Western blot of cyclins in HeLa cells; assay type: cell-based, human; settings: data not shown
Procedure: (§1) Western Blot Analysis: Cells were washed three times in cold 1×PBS, and collected by scraping on ice. Western blot analysis was performed as we described before with the chemiluminescence method (41). Antibodies used in this study were: ERα (NeoMarkers, Ab-15), Cyclin A (Santa Cruz Biotech, H-432), Cyclin B1 (Santa Cruz Biotech, H-433), Cyclin E (Upstate Biotech, HE-12), p27 (Santa Cruz Biotech, F-8). ERα antibody was used at 1:100 dilutions. Cyclin A, cyclin B1 and p27 antibodies were used at 1:500 dilutions. Cyclin E antibody was used at 1:1000 dilutions.

Akt (Ser 473) = experiment: Akt phosphorylation in MCF-7 cells; assay type: cell-based, human; settings: not shown
[4] = test system: MCF-7+A3 cells (stably transfected with human A3AR cDNA); experiment: Soft agar assay with MCF-7 cells stably expressing A3 adenosine receptor; assay type: cell-based; settings: MCF-7+A3 pool vs MCF-7
Procedure: Anchorage-independent growth (soft agar) assay: Soft agar assay was performed as described (40) with the following modifications. Ligands were added into the bottom and top agar before plating into 6-well plates. Cells were treated with trypsin (Invitrogen, Carlsbad, Calif.) for 5 minutes in a 37° C. incubator and pipetted several times so that most cells were in single cell forms. Cells were counted with a hemacytometer (Hausser Scientific/VWR, So. Plainfield, N.J.), and 10,000 cells were mixed with top agar and plated into each well. After the top agar had solidified, two ml of medium containing the same treatment was added on top of the agar. This covering medium was changed every two days during culture. After two weeks of culture, each well was counted for the number of colonies formed on an Olympus IX70 microscope under 40× optical amplification. A cell colony was defined as any cluster of cells that contain more than 3 cells. The average of counts from 3 random optical fields for each well was taken as the colony number and analyzed. Each treatment was performed in triplicates. The averages and standard deviations shown in the figures were calculated based on triplicate experiments. […] Clones of cells grown up were analyzed for their A3AR expression using RT-PCR.

[5] = test system: ERα protein in ZR-75 cells; experiment: ERα protein level in ZR-75 cells; assay type: cell-based, human; settings: not shown
Procedure: as §1

[6] = test system: MCF-7 cells overexpressing ERα; experiment: Growth of MCF-7 cells transiently transfected with pcDNA3-ERα; assay type: cell-based, human; settings: 100 μM; one day; transfection efficiency approximately 40%
Procedure: Anchorage-dependent growth assay: Cells were plated into 6-well plates and grown overnight before treatments. The seeding concentration of MCF-7 cells was 2×10^5/well, which was determined during preliminary experiments as not allowing the cells to reach confluency within 3 days. Cells were treated either with vehicle or ligands, as indicated. Cells were detached by incubation with trypsin (Invitrogen, Carlsbad, Calif.) and counted with a hemacytometer before or after treatment. Transfections and Reporter Gene Assay: Transient transfection was performed using FuGene6 (Roche, Indianapolis, Ind.) transfection reagent according to manufacturer's protocol. Circular reporter plasmid pERE-Tk-Luc at 10 μg and 10 μg of pCMV-β-Gal (as a measure of efficiency of trasnfection) were transfected with 50 μl of FuGene6. Cells were split into 6 well plates 12 hours after transfection, and incubated overnight in fresh medium. […] Luciferase and β-galactosidase activities were measured as described before (43, 44).

ZR-75 cells = experiment: Anchorage-dependent growth assay; assay type: cell-based, human; settings: 100 μM, three days
Procedure: (§2) Anchorage-dependent growth assay: Cells were plated into 6-well plates and grown overnight before treatments. The seeding concentration of MCF-7 cells was 2×10^5/well, which was determined during preliminary experiments as not allowing the cells to reach confluency within 3 days. Cells were treated either with vehicle or ligands, as indicated. Cells were detached by incubation with trypsin (Invitrogen, Carlsbad, Calif.) and counted with a hemacytometer before or after treatment.

Hs578T cells = experiment: Anchorage-dependent growth assay; assay type: cell-based, human; settings: 100 μM, three days
Procedure: as §2

Q: For CNC(=O)[C@H]1O[C@@H](n2cnc3c(NCc4cccc(I)c4)ncnc32)[C@H](O)[C@@H]1O [IB-MECA, N^6-(3-iodobenzyl)adenosine-5′-N-methyluronamide], which “Time of first sign of decrease of ERα mRNA” value [1] is on record?
A: Its value is 4 h.

Q: What about the “ERα mRNA level, in words” value ([1]; 4 to 24 hours, compared to GAPDH) of the same compound?
A: The value was “strongly downregulated; also recorded: dramatic decrease”.

Q: What about the “Thymidine incorporation reduced to” value [2] of the same compound?
A: The value was 68%.

Q: And the Cyclin levels [3]?
A: The Cyclin levels was “no significant change”.

Q: And the “Akt phosphorylation (at Ser 473)” value (Akt (Ser 473))?
A: The value was “induced Akt phosphorylation”.

Q: And the “Dosage response of colony formation compared to normal MCF-7 cells” value [4]?
A: The value was “almost identical dosage response”.

Q: And the “ERα protein levels, in words” value [5]?
A: The value was “Reduction of ERα protein levels”.

Q: And the “Effect on growth of ERα-overexpressing cells” value [6]?
A: The value was “moderate effect on growth”.

Q: And the “Cell counts after treatment compared to day 0, in words” value (ZR-75 cells)?
A: Its value is “decreased only mildly”.

Q: What about the “Cell counts after treatment compared to day 0, in words” value (Hs578T cells) of the same compound?
A: The value was “affected more severely”.
